This note sets out measurements from US6875775B2, “Triphenylalkene derivatives and their use as selective estrogen receptor modulators” (Hormos Medical Oy LTD, priority 1999, dated 2005).

For one test, the system named is MCF-7 cells. Put plainly: cells. The format is cell-based. The following applies: for Maximal Cell Kill (% fraction of dead cells) / cytotoxicity at 10 µM: 10 μmol/l; for Maximal Agonism (% of E2) / Emax: maximal growth stimulus at any concentration, 4 days; for cytotoxicity at 10 µM / inhibition at 1 µM / Emax: Homo sapiens, MCF7, 96 h; for cytotoxicity at 10 µM: read-out: Maximal Cell Kill (% fraction of dead cells); for inhibition at 1 µM: read-out: Antagonism at 1 μM (% of full antagonism); for Emax: read-out: Maximal Agonism (% of E2); for Killing of MCF-7 cells at the highest investigated concentration (in words): 10 μM, compounds with weak hormonal activity. The method, then:
Evaluation of Estrogenic and Antiestrogenic Properties of Compounds in MCF-7 Cell Growth Experiments in Vitro
For experiments involving hormone or anti-hormone treatment, the cells in exponential growth phase were precultivated in the absence of estradiol for one day. […] After the incubation period the medium was removed. The exposure to study drugs was started immediately by adding fresh medium with 5% stripped serum. Half of the cells were grown with estradiol, half without estradiol. Study compounds (dissolved in ethanol in 0.01 M concentration and diluted with the growth medium as appropriate) were added. The final concentrations of the compounds were 1, 10, and 100 nM, and 1 and 10 μM. The cells were incubated for four days.
This method allows evaluation of estrogenicity based on the ability of the compounds to stimulate the growth of the estrogen-dependent cells in the absence of estradiol.
Estrogenicity was estimated by comparing the maximal growth stimulus (at any concentration) of study compound as percent from growth stimulus by estradiol (100% stimulus). […] At high concentrations molecules may also show toxicity. Toxicity was estimated as the fraction of dead cells (i.e. 100% means that all cells have died during the exposure).

A short description of test [1]: Overall hormonal profile summarised from Tables 2, 3 and 4.
In test [2] the test system is DMBA-induced rat mammary gland cancer. Nature of the test: Antitumor activity in DMBA-induced rat mammary gland cancer model. Format: in vivo. Conditions: 3 mg/kg p.o. daily for 5 weeks. The method, then:
Estimation of Antitumor Activity in Vivo
Antitumor activity was estimated by using DMBA (dimethylbenz[a] anthracene) model. One single peroral dose of DMBA (12 mg) initiates mammary gland carcinogenesis. New compounds were administered for 5 weeks when palpable tumors appeared. Size of the tumors and number of new tumors were carefully estimated once a week until termination. The model has been described in detail by Kangas et al, 1986. The growth of the tumors was measured once a week. All tumors were classified according to their growth properties to progressing, stable and regressing ones. Disappeared tumors were separately calculated. The tumors were considered to be progressing, if the tumor volume grew more than 8-fold during the 5 weeks dosing period, and regressing if the tumor volume decreased to one fourth or less from the volume in the beginning. If tumor volume changed less or remained unchanged, the tumors were considered to be stable.

Like-named read-outs stand apart in the source and are kept apart here.

Take `CCCCN(C)C(=O)CCCCCCCCCC[C@@H]1Cc2cc(O)ccc2[C@H]2CC[C@]3(C)[C@@H](O)CC[C@H]3[C@H]12` [ICI 164,384, reference compound]: in the test with MCF-7 cells (With estradiol (E2)), the “Antagonism at 1 μM (% of full antagonism)” value was 100 % of full antagonism and the “Maximal Cell Kill (% fraction of dead cells)” value was 100 % fraction of dead cells. In the test with MCF-7 cells (Without estradiol (E2)), the “Maximal Cell Kill (% fraction of dead cells)” value is 100 % fraction of dead cells and the “Maximal Agonism (% of E2)” value is reported as 9 % of E2.

Regarding `ClCCOc1ccc(/C(=C(/CCCl)c2ccc(Cl)cc2)c2ccc(Cl)cc2)cc1` [No. 6, (E)-4-Chloro-1-[4-(2-chloroethoxy)phenyl]-1,2-bis(4-chlorophenyl)-but-1-ene], in the test with MCF-7 cells (With estradiol (E2)), the cytotoxicity at 10 µM was 40% and the inhibition at 1 µM was found to be 16%. Moreover, in the test with MCF-7 cells (Without estradiol (E2)), the cytotoxicity at 10 µM stood at 47% and the Emax amounted to 0%.

With `OCC(O)COc1ccc(/C(=C(/CCCl)c2ccccc2)c2ccc(Cl)cc2)cc1` (stereo not shown) [No. 10, (E)-3-{4-[4-Chloro-1-(4-chlorophenyl)-2-phenyl-but-1-enyl]phenoxy}propane-1,2-diol], in the test with MCF-7 cells (With estradiol (E2)), the cytotoxicity at 10 µM came to 35% and the inhibition at 1 µM was 0%. In the test on MCF-7 cells (Without estradiol (E2)), the cytotoxicity at 10 µM amounted to 7% and the Emax worked out at 34%. The “Estrogenic and antiestrogenic action (in words)” value in test [1] is “weak estrogenic and no antiestrogenic action”.

With `ClCCOCCOc1ccc(/C(=C(/CCCl)c2ccccc2)c2ccc(Cl)cc2)cc1` [No. 14], in the test with MCF-7 cells (With estradiol (E2)), the “Antagonism at 1 μM (% of full antagonism)” value is reported as 27 % of full antagonism and the “Maximal Cell Kill (% fraction of dead cells)” value is recorded as 57 % fraction of dead cells. Also, in the test on MCF-7 cells (Without estradiol (E2)), the “Maximal Cell Kill (% fraction of dead cells)” value was 10 % fraction of dead cells and the “Maximal Agonism (% of E2)” value was 12 % of E2.

For `Fc1ccc(/C(=C(\CCCl)c2ccccc2)c2ccc(OCCOCCCl)cc2)cc1` [No. 15], in the test with MCF-7 cells (With estradiol (E2)), the “Antagonism at 1 μM (% of full antagonism)” value is on record as 5 % of full antagonism and the “Maximal Cell Kill (% fraction of dead cells)” value is on record as 9 % fraction of dead cells. Moreover, in the test on MCF-7 cells (Without estradiol (E2)), the “Maximal Cell Kill (% fraction of dead cells)” value was 82 % fraction of dead cells and the “Maximal Agonism (% of E2)” value was 74 % of E2.

On to `OCCOc1ccc(C(=C(CCCl)c2ccccc2)c2ccc(OCCO)cc2)cc1` [No. 16, 2-(4-{4-Chloro-1-[4-(2-hydroxyethoxy)phenyl]-2-phenyl-but-1-enyl}phenoxy)1-ethanol], for which, in the test on MCF-7 cells, the “Killing of MCF-7 cells at the highest investigated concentration (in words)” value (shortened to “Killing of MCF-7 cells”) is on record as “kill MCF-7 cells (human breast cancer cells) effectively”.

Consider `ClCC/C(=C(\c1ccccc1)c1ccc(OCCn2ccnc2)cc1)c1ccccc1` [No. 21, (Z)-1-{2-[4-(4-Chloro-1,2-diphenyl-but-1-enyl)phenoxy]ethyl}-1H-imidazole], for which, in the test with MCF-7 cells (With estradiol (E2)), the cytotoxicity at 10 µM came out at 91% and the inhibition at 1 µM worked out at 0%. In addition, in the test on MCF-7 cells (Without estradiol (E2)), the cytotoxicity at 10 µM amounted to 80% and the Emax turned out to be 5%.

Take `CN(CCO)CCOc1ccc(/C(=C(/CCCl)c2ccccc2)c2ccccc2)cc1` [No. 22, (Z)-2-({2-[4-(4-Chloro-1,2-diphenyl-but-1-enyl)phenoxy]ethyl}methylamino)ethanol]: in the test on MCF-7 cells (With estradiol (E2)), the cytotoxicity at 10 µM was 41% and the inhibition at 1 µM turned out to be 12%. In the test with MCF-7 cells (Without estradiol (E2)), the cytotoxicity at 10 µM worked out at 15% and the Emax came out at 1%.

With `CN(C)CCOc1ccc(/C(=C(/CCCl)c2ccc(F)cc2)c2ccccc2)cc1` [No. 25, (Z)-(2-{4-[4-Chloro-2-(4-fluorophenyl)-1-phenylbut-1-enyl]phenoxy}ethyl)-dimethylamine], the “Estrogenic and antiestrogenic action (in words)” value in test [1] was “weak estrogenic and no antiestrogenic action”.

For `COc1ccc(/C(=C(\CCCl)c2ccc(Cl)cc2)c2ccc(OCCN(C)C)cc2)cc1` [No. 26, (Z)-(2-{4-[4-Chloro-2-(4-chlorophenyl)-1-(4-methoxyphenyl)but-1-enyl]phenoxy}-ethyl)dimethylamine], in the test on MCF-7 cells, the “Killing of MCF-7 cells” value is “kill MCF-7 cells (human breast cancer cells) effectively”.

Turning to `COc1ccc(/C(=C(/CCCl)c2ccc(Cl)cc2)c2ccc(OCCN(C)C)cc2)cc1` [No. 27, (E)-(2-{4-[4-Chloro-2-(4-chlorophenyl)-1-(4-methoxyphenyl)but-1-enyl]phenoxy}-ethyl)dimethylamine], the “Killing of MCF-7 cells” value with MCF-7 cells is reported as “kill MCF-7 cells (human breast cancer cells) effectively”.

Regarding `COc1cccc(/C(CCCl)=C(/c2ccccc2)c2ccc(OCCN3CCCCC3)cc2)c1` [No. 28, (Z)-1-(2-{4-[4-Chloro-2-(3-methoxyphenyl)-1-phenylbut-1-enyl]phenoxy}-ethyl)piperidine], in the test on MCF-7 cells (With estradiol (E2)), the cytotoxicity at 10 µM turned out to be 92% and the inhibition at 1 µM came to 18%. Also, in the test with MCF-7 cells (Without estradiol (E2)), the cytotoxicity at 10 µM amounted to 86% and the Emax turned out to be 3%.

Turning to `COc1ccccc1/C(CCCl)=C(/c1ccccc1)c1ccc(OCCN2CCCCC2)cc1` [No. 30, (Z)-1-(2-{4-[4-Chloro-2-(2-methoxyphenyl)-1-phenylbut-1-enyl]phenoxy}-ethyl)piperidine], in the test on MCF-7 cells (With estradiol (E2)), the cytotoxicity at 10 µM stood at 92% and the inhibition at 1 µM is 4%. In the test on MCF-7 cells (Without estradiol (E2)), the cytotoxicity at 10 µM was 91% and the Emax came to 5%.

Take `OCCCOc1ccc(/C(=C(/CCCl)c2ccccc2)c2ccccc2)cc1` [No. 35, (Z)-3-[4-(4-Chloro-1,2-diphenylbut-1-enyl)phenoxy]propan-1-ol]: the Emax in the test on MCF-7 cells (Without estradiol (E2)) worked out at 45%.

Turning to `ClCC/C(=C(\c1ccccc1)c1ccc(OCCN2CCCCC2)cc1)c1ccccc1Cl` [No. 38, (Z)-1-(2-{4-[4-Chloro-2-(2-chlorophenyl)-1-phenylbut-1-enyl]phenoxy}-ethyl)piperidine], in the test on MCF-7 cells (With estradiol (E2)), the cytotoxicity at 10 µM amounted to 100% and the inhibition at 1 µM turned out to be 68%. In the test on MCF-7 cells (Without estradiol (E2)), the cytotoxicity at 10 µM stood at 99% and the Emax amounted to 0%.

Turning to `Oc1cccc(/C(=C(\CCCl)c2ccccc2)c2ccc(OCCn3ccnc3)cc2)c1` [No. 39, (E)-3-{4-Chloro-1-[4-(2-imidazol-1-yl-ethoxy)phenyl]-2-phenyl-but-1-enyl}-phenol], the “Killing of MCF-7 cells” value in the test on MCF-7 cells is given as “kill MCF-7 cells (human breast cancer cells) effectively”. Besides, in the test on MCF-7 cells (With estradiol (E2)), the cytotoxicity at 10 µM amounted to 78% and the inhibition at 1 µM came out at 17%. For the same compound, in the test with MCF-7 cells (Without estradiol (E2)), the cytotoxicity at 10 µM came to 68% and the Emax was found to be 0%.

Take `Oc1cccc(/C(=C(/CCCl)c2ccccc2)c2ccc(OCCn3ccnc3)cc2)c1` [No. 40, (Z)-3-{4-Chloro-1-[4-(2-imidazol-1-yl-ethoxy)phenyl]-2-phenyl-but-1-enyl}-phenol]: in the test on MCF-7 cells, the “Killing of MCF-7 cells” value is recorded as “kill MCF-7 cells (human breast cancer cells) effectively”. Besides, in the test on MCF-7 cells (With estradiol (E2)), the cytotoxicity at 10 µM was 46% and the inhibition at 1 µM is 3%. Further, in the test on MCF-7 cells (Without estradiol (E2)), the cytotoxicity at 10 µM came to 63% and the Emax worked out at 0%.

Turning to `OCCNc1ccc(/C(=C(/CCCl)c2ccccc2)c2ccccc2)cc1` [No. 41, (Z)-2-[4-(4-Chloro-1,2-diphenyl-but-1-enyl)phenylamino]ethanol], in the test on MCF-7 cells (With estradiol (E2)), the cytotoxicity at 10 µM stood at 47% and the inhibition at 1 µM was 10%. Besides, in the test with MCF-7 cells (Without estradiol (E2)), the cytotoxicity at 10 µM was determined as 0% and the Emax came to 54%.

As to `CCC(O)(CC)COc1ccc(/C(=C(/CCCl)c2ccccc2)c2ccccc2)cc1` [No. 45, (Z)-3-[4-(4-Chloro-1,2-diphenylbut-1-enyl)phenoxymethyl]pentan-3-ol], in the test with MCF-7 cells (With estradiol (E2)), the cytotoxicity at 10 µM is 19% and the inhibition at 1 µM turned out to be 3%. Further, in the test on MCF-7 cells (Without estradiol (E2)), the cytotoxicity at 10 µM was 6% and the Emax was determined as 15%.

`CCC(CO)Oc1ccc(/C(=C(/CCCl)c2ccccc2)c2ccccc2)cc1` (stereo not shown) [No. 46, (Z)-2-[4-(4-Chloro-1,2-diphenylbut-1-enyl)phenoxy]butan-1-ol]: in the test on MCF-7 cells (With estradiol (E2)), the cytotoxicity at 10 µM was found to be 51% and the inhibition at 1 µM amounted to 23%. Also, in the test with MCF-7 cells (Without estradiol (E2)), the cytotoxicity at 10 µM was 15% and the Emax was found to be 18%.

`CC/C(=C(\c1ccccc1)c1ccc(OCCN(C)C)cc1)c1ccccc1` [Tamoxifen, reference compound]: in test [2], the “Disappeared tumors (per cent of total tumor number)” value stood at 0%, the “Growing tumors (per cent of total tumor number)” value was determined as 36%, the “Regressing tumors (per cent of total tumor number)” value is given as 8% and the “Stable tumors (per cent of total tumor number)” value is 56%.

As to `CN(C)CCOc1ccc(/C(=C(/CCCl)c2ccccc2)c2ccccc2)cc1` [Toremifene, reference compound], in test [2], the “Disappeared tumors (per cent of total tumor number)” value worked out at 10%, the “Growing tumors (per cent of total tumor number)” value turned out to be 31%, the “Regressing tumors (per cent of total tumor number)” value was determined as 11% and the “Stable tumors (per cent of total tumor number)” value worked out at 51%.
